Test results published in patent US20170121344A1 (Siga Technologies, Inc., priority 2009, published 2017).
Like-named read-outs stand apart in the source and are kept apart here.

Test system: Dengue-2 (Strain New Guinea C)
Test: Viral yield assay against Dengue-2 in Vero cells
Format: cell-based, Dengue virus
Details: Dengue virus
Outline: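 Vero cells were infected with dengue-2 at MOI 0.1, treated with compound (DMSO control), and kept at 37° C. They were harvested 48 hours post infection and yield was titered on Vero cells. EC50 came from the yield curve, and the other serotypes were run in a similar way.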

[1] = Vero cells, MOI 0.1, harvested 48 hours post infection, read-out: Activity (EC50 class) against Dengue-2 Virus in Vero cells
[2] = DENV2, viral yield assay, Vero cells, MOI 0.1, 48 hours post infection, read-out: Activity (EC50 in μM) DENV-2
[3] = Vero, 48 h, read-out: Activity (EC50 class) against Dengue-2 Virus in Vero cells
[4] = DENV2, Vero, 48 h, read-out: Activity (EC50 in μM) DENV-2

| SMILES | EC50 [1] [µM] | EC50 [2] [µM] | also measured |
| --- | --- | --- | --- |
| COc1cc2c(cc1OC)CN(C(=O)c1sc3nc4c(cc3c1N)CN(C)CC4)CC2 [Compound 274, (3-Amino-6-methyl-5,6,7,8-tetrahydro-thieno[2,3-b][1,6]naphthyridin-2-yl)-(6,7-dimethoxy-3,4-dihydro-1H-isoquinolin-2-yl)-methanone] | > 25 | – | – |
| O=C(Nc1ccccc1)c1sc2ncccc2c1OCc1ccc(Cl)c(Cl)c1 [Compound 379, 3-[(3,4-dichlorophenyl)methoxy]-N-phenyl-thieno[2,3-b]pyridine-2-carboxamide] | – | < 5 | – |
| Cc1cc(C)c2c(N)c(C(=O)Nc3cccc(C(F)(F)F)c3)sc2n1 [Compound 9, 3-Amino-4,6-dimethyl-thieno[2,3-b]pyridine-2-carboxylic acid (3-trifluoromethyl-phenyl)-amide] | – | – | EC50 [3]: < 5 µM |
| COc1ccc(NC(=O)c2sc3nc4c(cc3c2N)CCCCC4)cc1 [Compound 118, 3-Amino-6,7,8,9-tetrahydro-5H-1-thia-10-aza-cyclohepta[f]indene-2-carboxylic acid (4-methoxy-phenyl)-amide] | > 25 | – | – |
| COc1cc(NC(=O)c2sc3nc(C)cc(C)c3c2C)cc(OC)c1OC [Compound 401, 3,4,6-trimethyl-N-(3,4,5-trimethoxyphenyl)thieno[2,3-b]pyridine-2-carboxamide] | – | > 25 | – |
| COc1ccc(NC(=O)c2sc3nc(-c4ccc(F)cc4)ccc3c2N)cc1OC [Compound 619, 3-amino-N-(3,4-dimethoxyphenyl)-6-(4-fluorophenyl)thieno[2,3-b]pyridine-2-carboxamide] | – | – | EC50 [4]: < 5 µM |
| COCc1cc(C)nc2sc(C(=O)Nc3cc(Br)cc4cccnc34)c(N)c12 [Compound 146, 3-Amino-4-methoxymethyl-6-methyl-thieno[2,3-b]pyridine-2-carboxylic acid (6-bromo-quinolin-8-yl)-amide] | – | – | EC50 [3]: > 25 µM |
| COc1ccc(NC(=O)c2sc3nc(-c4cccs4)ccc3c2N)c(OC)c1 [Compound 432, 3-amino-N-(2,4-dimethoxyphenyl)-6-(2-thienyl)thieno[2,3-b]pyridine-2-carboxamide] | – | – | EC50 [4]: 5 to 25 µM |
| Nc1c(C(=O)Nc2cccc(C(F)(F)F)c2)sc2nc(-c3cccs3)ccc12 [Compound 3, 3-Amino-6-thiophen-2-yl-thieno[2,3-b]pyridine-2-carboxylic acid (3-trifluoromethyl-phenyl)-amide] | < 5 | – | – |
| COc1ccc(-c2ccc3c(N)c(C(=O)Nc4ccccc4C)sc3n2)cc1OC [Compound 581, 3-amino-6-(3,4-dimethoxyphenyl)-N-(o-tolyl)thieno[2,3-b]pyridine-2-carboxamide] | – | < 5 | – |
| Nc1c(C(=O)Nc2nccs2)sc2nc3c(c(-c4cccs4)c12)CCCCC3 [Compound 223, 3-Amino-4-thiophen-2-yl-6,7,8,9-tetrahydro-5H-1-thia-10-aza-cyclohepta[f]indene-2-carboxylic acid thiazol-2-ylamide] | – | – | EC50 [3]: > 25 µM |
| CN1CCc2nc3sc(C(=O)Nc4ccc(F)c(Cl)c4)c(N)c3cc2C1 [Compound 110, 3-Amino-6-methyl-5,6,7,8-tetrahydro-thieno[2,3-b][1,6]naphthyridine-2-carboxylic acid (3-chloro-4-fluoro-phenyl)-amide] | 5 to 25 | – | – |
| NC(=O)c1sc2nc(N3CCOCC3)c3c(c2c1N)CCCC3 [Compound 171, 1-Amino-5-morpholin-4-yl-6,7,8,9-tetrahydro-thieno[2,3-c]isoquinoline-2-carboxylic acid amide] | – | – | EC50 [3]: > 25 µM |
| Cc1cccc(NC(=O)c2sc3nc(-c4ccc(Cl)cc4)ccc3c2N)c1 [Compound 632, 3-amino-6-(4-chlorophenyl)-N-(m-tolyl)thieno[2,3-b]pyridine-2-carboxamide] | – | < 5 | – |
| COc1ccc(NC(=O)c2sc3nc(-c4ccc(F)cc4)ccc3c2N)c(C)c1 [Compound 624, 3-amio-6-(4-fluorophenyl)-N-(4-methoxy-2-methyl-phenyl)thieno[2,3-b] pyridine-2-carboxamide] | – | < 5 | – |
| Cc1cc(C(F)(F)F)c2c(N)c(C(=O)Nc3cccc(C(F)(F)F)c3)sc2n1 [Compound 149, 3-Amino-6-methyl-4-trifluoromethyl-thieno[2,3-b]pyridine-2-carboxylic acid (3-trifluoromethyl-phenyl)-amide] | – | – | EC50 [3]: > 25 µM |
| COc1ccc(C(F)(F)F)cc1NC(=O)c1sc2nc(-c3ccc(OC)c(OC)c3)ccc2c1N [Compound 531, 3-amino-6-(3,4-dimethoxyphenyl)-N-[2-methoxy-5-(trifluoromethyl)phenyl]thieno [2,3-b]pyridine-2-carboxamide] | – | < 5 | – |
| CN1CCc2nc3sc(C(=O)Nc4ccc(Cl)cc4)c(N)c3c(-c3cccs3)c2C1 [Compound 36, 3-Amino-6-methyl-4-thiophen-2-yl-5,6,7,8-tetrahydro-thieno[2,3-b][1,6]naphthyridine-2-carboxylic acid (4-chloro-phenyl)-amide] | < 5 | – | – |
| Nc1c(C(=O)Nc2ccc(S(N)(=O)=O)cc2)sc2nc3c(cc12)CCCCC3 [Compound 80, 3-Amino-6,7,8,9-tetrahydro-5H-1-thia-10-aza-cyclohepta[f]indene-2-carboxylic acid (4-sulfamoyl-phenyl)-amide] | – | – | EC50 [3]: 5 to 25 µM |

| SMILES | EC50 [1] [µM] | EC50 [2] [µM] | also measured |
| --- | --- | --- | --- |
| COc1ccccc1NC(=O)c1sc2nc(-c3ccc(C)cc3)ccc2c1N [Compound 643, 3-amino-N-(2-methoxyphenyl)-6-(p-tolyl)thieno[2,3-b]pyridine-2-carboxamide] | – | < 5 | – |
| Cc1ccc(NC(=O)c2sc3nc(-c4ccc(Cl)cc4)ccc3c2N)cc1C [Compound 348, 3-amino-6-(4-chlorophenyl)-N-(3,4-dimethyl-phenyl)thieno [2,3-b]pyridine-2-carboxamide] | – | < 5 | – |
| Cc1nc(C)c(-c2ccc3c(N)c(C(=O)Nc4cccc(C(F)(F)F)c4)sc3n2)s1 [Compound 318, 3-amino-6-(2,4-dimethylthiazol-5-yl)-N-[3-(trifluoromethyl)phenyl]thieno[2,3-b]pyridine-2-carboxamide] | – | < 5 | – |
| Nc1c(C(=O)Nc2nccs2)sc2nc(-c3ccccc3)cc(C(F)(F)F)c12 [Compound 192, 3-Amino-6-phenyl-4-trifluoromethyl-thieno[2,3-b]pyridine-2-carboxylic acid thiazol-2-ylamide] | > 25 | – | – |
| CN1CCc2nc3sc(C(=O)Nc4cc(Br)ccc4Br)c(N)c3cc2C1 [Compound 63, 3-Amino-6-methyl-5,6,7,8-tetrahydro-thieno[2,3-b][1,6]naphthyridine-2-carboxylic acid (2,5-dibromo-phenyl)-amide] | < 5 | – | – |
| CCOC(=O)c1c(NC(=O)c2sc3nc(N)c(C#N)cc3c2N)sc2c1CCCC2 [Compound 148, 2-[(3,6-Diamino-5-cyano-thieno[2,3-b]pyridine-2-carbonyl)-amino]-4,5,6,7-tetrahydro-benzo[b]thiophene-3-carboxylic acid ethyl ester] | > 25 | – | – |
| COc1ccc(NC(=O)c2sc3nc(-c4ccc(Cl)cc4)ccc3c2N)cc1 [Compound 527, 3-amino-6-(4-chlorophenyl)-N-(4-methoxyphenyl)thieno[2,3-b]pyridine-2-carboxamide] | – | < 5 | – |
| Cc1ccc(F)cc1NC(=O)c1sc2nc3c(cc2c1N)CN(C)CC3 [Compound 61, 3-Amino-6-methyl-5,6,7,8-tetrahydro-thieno[2,3-b][1,6]naphthyridine-2-carboxylic acid (5-fluoro-2-methyl-phenyl)-amide] | < 5 | – | – |
| Cc1ccc2c(n1)sc1c(=O)[nH]c(C)nc12 [Compound 154, 2,7-Dimethyl-3H-pyrido[3′,2′:4,5]thieno[3,2-d]pyrimidin-4-one] | > 25 | – | – |
| COCc1cc(C)c2c(N)c(C(N)=O)sc2n1 [Compound 68, 3-Amino-6-methoxymethyl-4-methyl-thieno[2,3-b]pyridine-2-carboxylic acid amide] | 5 to 25 | – | – |
| Cc1c(C(=O)N(C)C2CCCC(C)C2)sc2nc(C(F)(F)F)ccc12 (stereo not shown) [Compound 399, N,3-dimethyl-N-(3-methylcyclohexyl)-6-(trifluoromethyl)thieno[2,3-b]pyridine-2-carboxamide] | – | < 5 | – |
| Nc1c(C(=O)Nc2ccc3ccccc3c2)sc2nc3c(cc12)CCCC3 [Compound 87, 3-Amino-5,6,7,8-tetrahydro-thieno[2,3-b]quinoline-2-carboxylic acid naphthalen-2-ylamide] | 5 to 25 | – | – |
| COCc1cc(C)nc2sc(C(=O)Nc3ccccc3C)c(N)c12 [Compound 210, 3-Amino-4-methoxymethyl-6-methyl-thieno[2,3-b]pyridine-2-carboxylic acid o-tolylamide] | – | – | EC50 [3]: > 25 µM |
| O=C(Nc1cccc(Cl)c1)c1sc2ncccc2c1O [Compound 381, N-(3-chlorophenyl)-3-hydroxy-thieno[2,3-b]pyridine-2-carboxamide] | – | 5 to 25 | – |
| COc1ccc(-c2ccc3c(N)c(C(=O)Nc4ccccc4)sc3n2)cc1OC [Compound 634, 3-amino-6-(3,4-dimethoxyphenyl)-N-phenyl-thieno[2,3-b]pyridine-2-carboxamide] | – | < 5 | – |
| Cc1cccc(C)c1NC(=O)c1sc2nc(N)c(C#N)cc2c1N [Compound 127, 3,6-Diamino-5-cyano-thieno[2,3-b]pyridine-2-carboxylic acid (2,6-dimethyl-phenyl)-amide] | > 25 | – | – |
| COc1cccc(-c2ccc3c(N)c(C(=O)Nc4ccc(F)cc4F)sc3n2)c1 [Compound 502, 3-amino-N-(2,4-difluorophenyl)-6-(3-methoxyphenyl)thieno[2,3-b]pyridine-2-carboxamide] | – | < 5 | – |
| O=c1[nH]c2c(sc3nc(-c4cccs4)ccc32)c(=O)n1-c1cccc(C(F)(F)F)c1 [Compound 316, 7-(thiophen-2-yl)-3-(3-(trifluoromethyl)phenyl)pyrido[3′,2′:4,5]thieno[3,2-d]pyrimidine-2,4(1H,3H)-dione] | – | < 5 | – |
